Where two headings read alike, the source gives them in different places. Each block holds one compound with its values, some of them ahead of it.
Tests used:
[1] = tested on: R2 cells; test: Growth inhibition of R2 subline (MTX-transport deficient); format: cell-based; settings: Homo sapiens; Table 8; continuous (0-120 hours) exposure; read-out: Growth inhibition EC50, R2
[2] = tested on: FaDu; test: Growth inhibition of FaDu human squamous carcinoma cell line; format: cell-based; settings: Homo sapiens, FaDu; Table 9; continuous (120 hours) exposure; read-out: Growth inhibition EC50, FaDu
[3] = tested on: HOP-62; format: cell-based; settings: Homo sapiens; HOP-62, Non-Small Cell Lung Cancer
[4] = tested on: HOP-92; format: cell-based
[5] = tested on: NCI-H226; format: cell-based
[6] = tested on: NCI-H522; format: cell-based
[7] = tested on: HCT-116; test: NCI in vitro anti-cancer activity, Colon Cancer; format: cell-based
[8] = tested on: HCT-15; test: NCI in vitro anti-cancer activity, Colon Cancer; format: cell-based
[9] = tested on: SF-539; test: NCI in vitro anti-cancer activity, CNS Cancer; format: cell-based
[10] = tested on: SNB-75; test: NCI in vitro anti-cancer activity, CNS Cancer; format: cell-based
[11] = tested on: LOX IMVI; test: NCI in vitro anti-cancer activity, Melanoma; format: cell-based
[12] = tested on: MALME-3M; test: NCI in vitro anti-cancer activity, Melanoma; format: cell-based
[13] = tested on: M14; test: NCI in vitro anti-cancer activity, Melanoma; format: cell-based
[14] = tested on: SK-MEL-28; test: NCI in vitro anti-cancer activity, Melanoma; format: cell-based
[15] = tested on: IGROV1; test: NCI in vitro anti-cancer activity, Ovarian Cancer; format: cell-based
[16] = tested on: OVCAR-3; test: NCI in vitro anti-cancer activity, Ovarian Cancer; format: cell-based
[17] = tested on: OVCAR-8; test: NCI in vitro anti-cancer activity, Ovarian Cancer; format: cell-based
[18] = tested on: SK-OV-3; test: NCI in vitro anti-cancer activity, Ovarian Cancer; format: cell-based
[19] = tested on: 786-0; test: NCI in vitro anti-cancer activity, Renal Cancer; format: cell-based
[20] = tested on: CAKI-1; test: NCI in vitro anti-cancer activity, Renal Cancer; format: cell-based
[21] = tested on: TK-10; test: NCI in vitro anti-cancer activity, Renal Cancer; format: cell-based
[22] = tested on: DU-145; test: NCI in vitro anti-cancer activity, Prostate Cancer; format: cell-based
[23] = tested on: MCF7; test: NCI in vitro anti-cancer activity, Breast Cancer; format: cell-based
[24] = tested on: MCF7/ADR-RES; test: NCI in vitro anti-cancer activity, Breast Cancer; format: cell-based; settings: Homo sapiens
[25] = tested on: MDA-MB-231/ATCC; test: NCI in vitro anti-cancer activity, Breast Cancer; format: cell-based
[26] = tested on: BT-549; test: NCI in vitro anti-cancer activity, Breast Cancer; format: cell-based
[27] = biological target: T1, RL DHFR (Rattus norvegicus, UniProt Q920D2); test: Inhibition of DHFR from rat liver; format: biochemical
T1 construct: Toxoplasmosis gondii (Tg) and rat liver (RL); from tissue; host or cells: rat liver
T1 sequence (Q920D2 1-187): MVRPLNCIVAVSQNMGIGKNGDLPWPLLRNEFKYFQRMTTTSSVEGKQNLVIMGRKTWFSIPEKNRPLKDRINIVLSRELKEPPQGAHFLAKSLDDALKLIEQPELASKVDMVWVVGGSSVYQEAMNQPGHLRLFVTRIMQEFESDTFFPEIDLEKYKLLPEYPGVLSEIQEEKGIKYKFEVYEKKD
Protocol: The selectivity ratio is a measure of the selectivity of a compound for Pc DHFR or Tg DHFR and is expressed as the IC50 value of the DHFR from rate liver (RL) divided by the IC50 value of either the Pc DHFR or the Tg DHFR, depending on which organism the compounds are being tested against. For example, the selectivity ratio of a compound is calculated by the following formula: [formula]

[28] = biological target: L. casei DHFR (Lacticaseibacillus casei, UniProt P00381); test: Inhibition of Lactobacillus casei DHFR; format: biochemical; settings: at […] 10^−5
L. casei DHFR, sequence (P00381 whole entry): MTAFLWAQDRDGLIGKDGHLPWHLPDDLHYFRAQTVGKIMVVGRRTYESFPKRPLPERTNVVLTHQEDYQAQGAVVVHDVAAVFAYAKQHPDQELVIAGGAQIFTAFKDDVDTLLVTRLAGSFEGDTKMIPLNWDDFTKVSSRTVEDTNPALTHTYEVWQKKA

[29] = tested on: CCRF-CEM; test: NCI in vitro anti-cancer activity, Leukemia; format: cell-based; settings: Table 29, Leukemia
[30] = tested on: HL-60 (TB); test: NCI in vitro anti-cancer activity, Leukemia; format: cell-based; settings: Table 29, Leukemia
[31] = tested on: RPMI-8226; test: NCI in vitro anti-cancer activity, Leukemia; format: cell-based; settings: Table 29, Leukemia
[32] = tested on: NCI-H460; format: cell-based; settings: Table 29, Non-Small Cell Lung Cancer
[33] = tested on: MOLT-4; test: NCI in vitro anti-cancer activity, Leukemia; format: cell-based; settings: Table 29, Leukemia
[34] = tested on: UACC-257; test: NCI in vitro anti-cancer activity, Melanoma; format: cell-based; settings: Table 29, Melanoma
[35] = tested on: SK-MEL-5; test: NCI in vitro anti-cancer activity, Melanoma; format: cell-based; settings: Table 29, Melanoma
[36] = tested on: K-562; test: NCI in vitro anti-cancer activity; settings: Table 29, Leukemia
[37] = tested on: NCI/ADR-RES; test: NCI in vitro anti-cancer activity, breast cancer; settings: Table 29, Breast Cancer, NCI/ADRRES
[38] = Table 29, Non-Small Cell Lung Cancer, HOP-92
[39] = Table 29, Non-Small Cell Lung Cancer, NCI-H226
[40] = Table 29, Non-Small Cell Lung Cancer, NCI-H522
[41] = Table 29, Ovarian Cancer, IGROV1
[42] = Table 29, Ovarian Cancer, OVCAR-3
[43] = Table 29, Ovarian Cancer, OVCAR-8
[44] = Table 29, Ovarian Cancer, SK-OV-3
[45] = Table 29, Prostate Cancer, DU-145
[46] = Table 29, Breast Cancer, BT-549

EC50 [2]: 0.022 ± 0.004 µM
GI50 ([5]; Homo sapiens, NCI-H226, Non-Small Cell Lung Cancer): > 100 µM
GI50 ([6]; Homo sapiens, NCI-H522, Non-Small Cell Lung Cancer): > 100 µM
SMILES: Nc1nc(N)c2c(CNc3ccc(C(=O)N[C@@H](CCC(=O)O)C(=O)O)cc3)c[nH]c2n1 [Compound 9]
EC50 [1]: 1.65 ± 0.2 µM
GI50 [3]: < 0.01 µM
GI50 ([4]; Homo sapiens, HOP-92, Non-Small Cell Lung Cancer): 8.4 µM
GI50 ([7]; Homo sapiens): < 0.01 µM
GI50 ([8]; Homo sapiens, HCT-15, Colon Cancer): < 0.01 µM
GI50 ([9]; Homo sapiens): < 0.01 µM
GI50 ([10]; Homo sapiens, SNB-75, CNS Cancer): < 0.01 µM
GI50 ([11]; Homo sapiens, Melanoma): < 0.01 µM
GI50 ([12]; Homo sapiens, Melanoma): < 0.01 µM
GI50 ([13]; Homo sapiens, M14, Melanoma): < 0.01 µM
GI50 ([14]; Homo sapiens, SK-MEL-28, Melanoma): > 100 µM
GI50 ([15]; Homo sapiens, IGROV-1, IGROV1, Ovarian Cancer): < 0.01 µM
GI50 ([16]; Homo sapiens, OVCAR-3, Ovarian Cancer): > 100 µM
GI50 ([17]; Homo sapiens, OVCAR-8, Ovarian Cancer): < 0.01 µM
GI50 ([18]; Homo sapiens, SK-OV-3, Ovarian Cancer): > 100 µM
GI50 ([19]; Homo sapiens, 786-0, Renal Cancer): < 0.01 µM
GI50 ([20]; Homo sapiens, CAKI-1, Renal Cancer): < 0.01 µM
GI50 ([21]; Homo sapiens, TK-10, Renal Cancer): > 100 µM
GI50 ([22]; Homo sapiens, DU-145, Prostate Cancer): 0.0109 µM
GI50 ([23]; Homo sapiens, MCF7, Breast Cancer): < 0.01 µM
GI50 [24]: < 0.01 µM
GI50 ([25]; Homo sapiens, Breast Cancer): > 100 µM
GI50 ([26]; Homo sapiens, BT-549, Breast Cancer): > 100 µM

SMILES: COc1ccc(CCc2cn(Cc3ccccc3)c3nc(N)nc(C)c23)cc1 [Compound 113-118]
% inhibition RL DHFR ([27]; @ 31 μM): 48% @
% inhibition obtained at the stated concentration, L. casei DHFR [28]: 0%
GI50 [29]: > 100 µM
GI50 [30]: > 100 µM
GI50 [31]: > 100 µM
GI50 [4, 38]: 31 µM
GI50 [5, 39]: > 100 µM
GI50 [6, 40]: 29.1 µM
GI50 ([7]; Table 29, Colon Cancer): 48.3 µM
GI50 ([8]; Table 29, Colon Cancer, HCT-15): 51.4 µM
GI50 ([9]; Table 29, CNS Cancer): 30.2 µM
GI50 ([10]; Table 29, CNS Cancer, SNB-75): > 100 µM
GI50 ([11]; Table 29, Melanoma): 50 µM
GI50 ([12]; Table 29, Melanoma): 19.5 µM
GI50 ([13]; Table 29, Melanoma, M14): 93.6 µM
GI50 ([14]; Table 29, Melanoma, SK-MEL-28): > 100 µM
GI50 [15, 41]: 68.2 µM
GI50 [16, 42]: > 100 µM
GI50 [17, 43]: 52.5 µM
GI50 [18, 44]: > 100 µM
GI50 ([19]; Table 29, Renal Cancer, 786-0): > 100 µM
GI50 ([20]; Table 29, Renal Cancer, CAKI-1): > 100 µM
GI50 ([21]; Table 29, Renal Cancer, TK-10): > 100 µM
GI50 [22, 45]: > 100 µM
GI50 ([23]; Table 29, Breast Cancer, MCF7): 29.6 µM
GI50 ([25]; Table 29, Breast Cancer): < 100 µM
GI50 [26, 46]: 40.9 µM
GI50 [32]: 42.5 µM

SMILES: COc1ccccc1CCc1cn(Cc2ccccc2)c2nc(N)nc(C)c12 [Compound 113-148]
% inhibition RL DHFR ([27]; @ 85 μM): 27% @
GI50 [29]: 2.97 µM
GI50 [30]: 4.81 µM
GI50 [33]: 7.46 µM
GI50 [4, 38]: 16.3 µM
GI50 [5, 39]: 12.4 µM
GI50 [6, 40]: 8.34 µM
GI50 ([7]; Table 29, Colon Cancer): 4.51 µM
GI50 ([9]; Table 29, CNS Cancer): 7.2 µM
GI50 ([10]; Table 29, CNS Cancer, SNB-75): 17.6 µM
GI50 ([11]; Table 29, Melanoma): 13.7 µM
GI50 ([12]; Table 29, Melanoma): 18.6 µM
GI50 ([13]; Table 29, Melanoma, M14): 12 µM
GI50 ([14]; Table 29, Melanoma, SK-MEL-28): 15.7 µM
GI50 [34]: 6.36 µM
GI50 [15, 41]: 14.2 µM
GI50 [16, 42]: 14.8 µM
GI50 [17, 43]: 17.6 µM
GI50 [18, 44]: 17.3 µM
GI50 ([19]; Table 29, Renal Cancer, 786-0): 11.6 µM
GI50 ([20]; Table 29, Renal Cancer, CAKI-1): 11.6 µM
GI50 ([21]; Table 29, Renal Cancer, TK-10): 10.2 µM
GI50 [22, 45]: 13.1 µM
GI50 ([23]; Table 29, Breast Cancer, MCF7): 12.6 µM
GI50 ([25]; Table 29, Breast Cancer): 10.8 µM
GI50 [26, 46]: 15.8 µM
GI50 [32]: 7.7 µM
GI50 [35]: 5.8 µM
GI50 [36]: 5.91 µM
GI50 [37]: 6.75 µM

SMILES: COc1cc(CCc2c[nH]c3nc(N)nc(C)c23)cc(OC)c1OC [Compound 113-154A]
IC50 ([27]; Table 26, read-out: Inhibitory Concentrations (IC50) RL DHFR): 2.3 µM
GI50 [30]: 41.8 µM
GI50 [33]: 38.7 µM
GI50 [31]: 67.4 µM
GI50 [4, 38]: 18.2 µM
GI50 [5, 39]: 23 µM
GI50 [6, 40]: 25 µM
GI50 ([7]; Table 29, Colon Cancer): 36.8 µM
GI50 ([8]; Table 29, Colon Cancer, HCT-15): 24.3 µM
GI50 ([9]; Table 29, CNS Cancer): 20.4 µM
GI50 ([10]; Table 29, CNS Cancer, SNB-75): 27.5 µM
GI50 ([11]; Table 29, Melanoma): 30 µM
GI50 ([12]; Table 29, Melanoma): 47.4 µM
GI50 ([13]; Table 29, Melanoma, M14): 29.8 µM
GI50 [34]: 56.4 µM
GI50 [15, 41]: 17.3 µM
GI50 [16, 42]: 74.8 µM
GI50 [17, 43]: 31.1 µM
GI50 [18, 44]: 88.8 µM
GI50 ([19]; Table 29, Renal Cancer, 786-0): 32.8 µM
GI50 ([20]; Table 29, Renal Cancer, CAKI-1): 49.5 µM
GI50 ([21]; Table 29, Renal Cancer, TK-10): 58.9 µM
GI50 [22, 45]: 75.6 µM
GI50 ([23]; Table 29, Breast Cancer, MCF7): 27.2 µM
GI50 ([25]; Table 29, Breast Cancer): 37.3 µM
GI50 [26, 46]: 19.3 µM
GI50 [32]: 19.3 µM
GI50 [35]: 37.3 µM
GI50 [36]: 23 µM
GI50 [37]: 25.9 µM

Reference: patent US6962920B2, “Pyrimidine derivatives and methods of making and using these derivatives” (Duquesne University of the Holy Ghost, priority 1992, dated 2005)
